Source: PubChem BioAssay AID1259407 (Chemical Carcinogenesis Research Information System (CCRIS), 2018)
Entries after “also recorded” stand apart in the source; their conditions may differ. Activity calls are given as the source filed them. No rule for the calls is given here.

System: CCRIS mutagenicity, Ames/micronucleus/aberration tests
Assay: CCRIS mutagenicity studies

Measured: mutagenic call

NN=C(N)N
inactive: Test System: AMES SALMONELLA TYPHIMURIUM, Strain/Indicator: TA98, Metabolic Activation: NONE, Method: PREINCUBATION inactive; negative | Test System: AMES SALMONELLA TYPHIMURIUM, Strain/Indicator: TA98, Metabolic Activation: RAT LIVER S-9, PHENOBARBITAL AND BETA-NAPHTHOFLAVONE, Method: PREINCUBATION inactive; negative | Test System: AMES SALMONELLA TYPHIMURIUM, Strain/Indicator: TA100, Metabolic Activation: NONE, Method: PREINCUBATION inactive; negative | Test System: AMES SALMONELLA TYPHIMURIUM, Strain/Indicator: TA100, Metabolic Activation: RAT LIVER S-9, PHENOBARBITAL AND BETA-NAPHTHOFLAVONE, Method: PREINCUBATION inactive; negative | Test System: AMES SALMONELLA TYPHIMURIUM, Strain/Indicator: TA1535, Metabolic Activation: NONE, Method: PREINCUBATION inactive; negative | Test System: AMES SALMONELLA TYPHIMURIUM, Strain/Indicator: TA1535, Metabolic Activation: RAT LIVER S-9, PHENOBARBITAL AND BETA-NAPHTHOFLAVONE, Method: PREINCUBATION inactive; negative | Test System: AMES SALMONELLA TYPHIMURIUM, Strain/Indicator: TA1537, Metabolic Activation: NONE, Method: PREINCUBATION inactive; negative | Test System: AMES SALMONELLA TYPHIMURIUM, Strain/Indicator: TA1537, Metabolic Activation: RAT LIVER S-9, PHENOBARBITAL AND BETA-NAPHTHOFLAVONE, Method: PREINCUBATION inactive; negative | Test System: E.COLI, Strain/Indicator: WP2UVRA/PKM101, Metabolic Activation: NONE, Method: PREINCUBATION inactive; negative | Test System: E.COLI, Strain/Indicator: WP2UVRA/PKM101, Metabolic Activation: RAT LIVER S-9, PHENOBARBITAL AND BETA-NAPHTHOFLAVONE, Method: PREINCUBATION inactive; negative

O=C1NC(=S)NC(=O)C1C(=O)Nc1ccccc1
active: Test System: MOUSE LYMPHOMA, Strain/Indicator: L5178Y (HPRT)/6-THIOGUANINE, Metabolic Activation: NONE, Method: FLUCTUATION TEST active; positive | Test System: MOUSE LYMPHOMA, Strain/Indicator: L5178Y (TK+/TK-), Metabolic Activation: NONE, Method: FLUCTUATION TEST active; positive
inactive: Test System: AMES SALMONELLA TYPHIMURIUM, Strain/Indicator: TA102, Metabolic Activation: NONE, Method: STANDARD PLATE inactive; negative | Test System: CHINESE HAMSTER V-79, Strain/Indicator: V-79 (HPRT)/6-THIOGUANINE, Metabolic Activation: NONE inactive; negative

COc1ccc2nc(S(=O)Cc3ncc(C)c(OC)c3C)[nH]c2c1 (stereo unspecified)
active: End Point: IN VITRO MICRONUCLEUS, Test System: AHH-1 CELLS, Metabolic Activation: NONE active; positive | End Point: IN VITRO MICRONUCLEUS, Test System: HEPATOCYTES, Species: RAT, Strain/Sex: SPRAGUE-DAWLEY/FEMALE, Metabolic Activation: NONE active; positive; at 33 mg dose in 50% of rats | End Point: IN VITRO MICRONUCLEUS, Test System: HUMAN LYMPHOCYTES, Metabolic Activation: NONE active; positive (in 4/5 donors); also recorded: active; positive; only at 18 ug/ml and 1 of 2 donors | End Point: IN VITRO MICRONUCLEUS, Test System: MCL-5 CELLS, Metabolic Activation: NONE active; positive | End Point: IN VIVO MICRONUCLEUS, Test System: HEPATOCYTES, Species: RAT, Strain/Sex: SPRAGUE-DAWLEY/FEMALE, Route: ORAL active; positive
inactive: End Point: IN VIVO MICRONUCLEUS, Test System: BONE MARROW POLYCHROMATIC ERYTHROCYTES, Species: RAT, Strain/Sex: SPRAGUE-DAWLEY/FEMALE, Route: ORAL inactive; negative; some increase but not statistically significant

CN(C)Nc1ccn([C@@H]2O[C@H](CO)[C@@H](O)[C@H]2O)c(=O)n1
inactive: Test System: CHINESE HAMSTER V-79, Strain/Indicator: V-79/6-THIOGUANINE, Metabolic Activation: NONE, Method: REPLATING inactive; negative

CC(CF)NCC(O)COc1cccc2[nH]c3ccccc3c12 (stereo unspecified)
inactive: Test System: AMES SALMONELLA TYPHIMURIUM, Strain/Indicator: TA98, Metabolic Activation: NONE, Method: STANDARD PLATE inactive; negative | Test System: AMES SALMONELLA TYPHIMURIUM, Strain/Indicator: TA98, Metabolic Activation: RAT LIVER S-9, AROCLOR 1254, 5%, Method: STANDARD PLATE inactive; negative
active: Test System: AMES SALMONELLA TYPHIMURIUM, Strain/Indicator: TA100, Metabolic Activation: NONE, Method: STANDARD PLATE active; positive | Test System: AMES SALMONELLA TYPHIMURIUM, Strain/Indicator: TA100, Metabolic Activation: RAT LIVER S-9, AROCLOR 1254, 5%, Method: STANDARD PLATE active; positive | Test System: AMES SALMONELLA TYPHIMURIUM, Strain/Indicator: TA1535, Metabolic Activation: NONE, Method: STANDARD PLATE active; positive | Test System: AMES SALMONELLA TYPHIMURIUM, Strain/Indicator: TA1535, Metabolic Activation: RAT LIVER S-9, AROCLOR 1254, 5%, Method: STANDARD PLATE active; positive

Nc1cc2cccc3ccc4cccc1c4c32
inactive: Test System: AMES SALMONELLA TYPHIMURIUM, Strain/Indicator: TA1535, Metabolic Activation: RAT, LIVER, S-9, AROCLOR 1254 (2%), Method: STANDARD PLATE inactive; negative
active: Test System: AMES SALMONELLA TYPHIMURIUM, Strain/Indicator: TA98, Metabolic Activation: RAT, LIVER, S-9, AROCLOR 1254 (2 OR 4%), Method: STANDARD PLATE active; positive | Test System: AMES SALMONELLA TYPHIMURIUM, Strain/Indicator: TA100, Metabolic Activation: RAT, LIVER, S-9, AROCLOR 1254 (2%), Method: STANDARD PLATE active; positive | Test System: AMES SALMONELLA TYPHIMURIUM, Strain/Indicator: TA1537, Metabolic Activation: RAT, LIVER, S-9, AROCLOR 1254 (2%), Method: STANDARD PLATE active; positive
